pIC50: −log10 of the molar value.
What was measured:
HCC70 [1] = experiment: Antitumor activity against human HCC70 cells xenografted in female nu/nu mouse assessed as tumor growth inhibition at 3 mg/kg, po administered once daily and measured for 4 weeks; type: functional; conditions: HCC70, 672 h, read-out: TGI
[2] = Drug concentration in rat small intestine at 5 mg/kg, po measured after 2 hrs; type: ADME, organism-based; conditions: read-out: Ct
[3] = Half life in human OVCAR-3 cells xenografted in female Balb/c nude mouse plasma at 10 mg/kg, po administered once daily; type: ADME, organism-based
[4] = Half life in Sprague-Dawley rat at 30 mg/kg, po; type: ADME, organism-based; conditions: in vivo
[5] = AUC (0 to t) in human OVCAR-3 cells xenografted in female Balb/c nude mouse plasma at 20 mg/kg, po administered once daily; type: ADME, organism-based
[6] = Drug concentration in rat plasma at 5 mg/kg, po measured after 8 hrs; type: ADME, organism-based
[7] = biological target: Serine/threonine-protein kinase D2 (Homo sapiens) (UniProt Q9BZL6); experiment: Inhibition of PRKD2 (unknown origin) at 200 nM relative to control; values are per cent of control
Sequence of Serine/threonine-protein kinase D2 (Homo sapiens) (Q9BZL6 whole entry): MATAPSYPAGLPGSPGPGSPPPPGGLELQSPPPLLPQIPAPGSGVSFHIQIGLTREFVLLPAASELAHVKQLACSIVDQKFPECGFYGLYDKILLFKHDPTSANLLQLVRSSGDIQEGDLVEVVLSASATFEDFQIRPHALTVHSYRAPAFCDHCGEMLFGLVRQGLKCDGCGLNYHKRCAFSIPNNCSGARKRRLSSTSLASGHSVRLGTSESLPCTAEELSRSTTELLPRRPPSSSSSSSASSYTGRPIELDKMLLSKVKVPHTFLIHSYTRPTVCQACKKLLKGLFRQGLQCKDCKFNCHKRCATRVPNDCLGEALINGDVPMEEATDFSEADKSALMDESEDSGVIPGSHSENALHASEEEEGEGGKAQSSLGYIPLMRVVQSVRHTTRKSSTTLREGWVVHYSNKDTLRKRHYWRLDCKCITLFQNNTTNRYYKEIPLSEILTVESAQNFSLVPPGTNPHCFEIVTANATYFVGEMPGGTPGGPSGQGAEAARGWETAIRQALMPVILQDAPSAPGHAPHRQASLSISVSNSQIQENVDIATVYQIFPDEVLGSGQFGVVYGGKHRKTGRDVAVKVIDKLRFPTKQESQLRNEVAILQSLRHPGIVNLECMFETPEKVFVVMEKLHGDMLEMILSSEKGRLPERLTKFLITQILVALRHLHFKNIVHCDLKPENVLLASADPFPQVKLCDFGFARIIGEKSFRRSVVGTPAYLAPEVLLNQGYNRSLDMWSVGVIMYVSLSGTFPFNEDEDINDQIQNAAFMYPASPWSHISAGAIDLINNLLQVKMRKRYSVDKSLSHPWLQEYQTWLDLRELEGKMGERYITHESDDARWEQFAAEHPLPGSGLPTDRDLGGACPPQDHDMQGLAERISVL

OVCAR-3 [8] = experiment: Antitumor activity against human OVCAR-3 cells xenografted in female Balb/c nude mouse assessed as tumor growth inhibition at 5 mg/kg, po administered once daily and measured on day 22; type: functional; conditions: OVCAR-3, 528 h, time 22 day, read-out: TGI
[9] = biological target: Cyclin-dependent kinase 4/cyclin D1 (Homo sapiens, UniProt P11802); experiment: Inhibition of CDK4/CyclinD1 (unknown origin); type: protein-complex assay
[10] = Drug concentration in rat plasma at 5 mg/kg, po measured after 0.5 hrs; type: ADME, organism-based
[11] = AUC(0 to t) in human HCC70 cells xenografted in female nu/nu mouse plasma at 10 mg/kg, po administered once daily; type: ADME, organism-based
[12] = AUC(0 to t) in dog at 2 mg/kg, po; type: ADME, organism-based, Canis lupus familiaris; conditions: in vivo
[13] = biological target: Ribosomal protein S6 kinase alpha-3 (Homo sapiens, UniProt P51812); experiment: Inhibition of RSK2 (unknown origin) at 200 nM relative to control; values are per cent of control
[14] = Cmax in human OVCAR-3 cells xenografted in female Balb/c nude mouse plasma at 10 mg/kg, po administered once daily; type: ADME, organism-based
[15] = Cmax in dog at 2 mg/kg, po; type: ADME, organism-based, Canis lupus familiaris; conditions: in vivo
[16] = Half life in mouse at 1 mg/kg, iv; type: ADME, organism-based; conditions: in vivo
[17] = Half life in Sprague-Dawley rat at 100 mg/kg, po; type: ADME, organism-based; conditions: in vivo
[18] = AUC(0 to 48 hrs) in Sprague-Dawley rat at 300 mg/kg, po; type: ADME, organism-based; conditions: in vivo
Cytochrome P450 2D6 = Cytochrome P450 2D6 (Homo sapiens, UniProt P10635); experiment: Inhibition of CYP2D6 (unknown origin); type: ADME
[19] = Drug concentration in rat small intestine at 5 mg/kg, po measured after 0.5 hrs; type: ADME, organism-based; conditions: read-out: Ct
CDK18/Cyclin Y = CDK18/Cyclin Y (Homo sapiens, UniProt Q07002+Q8ND76); experiment: Inhibition of CDK18/Cyclin Y (unknown origin); type: protein-complex assay
Sequence of CDK18/Cyclin Y (Q07002 whole entry): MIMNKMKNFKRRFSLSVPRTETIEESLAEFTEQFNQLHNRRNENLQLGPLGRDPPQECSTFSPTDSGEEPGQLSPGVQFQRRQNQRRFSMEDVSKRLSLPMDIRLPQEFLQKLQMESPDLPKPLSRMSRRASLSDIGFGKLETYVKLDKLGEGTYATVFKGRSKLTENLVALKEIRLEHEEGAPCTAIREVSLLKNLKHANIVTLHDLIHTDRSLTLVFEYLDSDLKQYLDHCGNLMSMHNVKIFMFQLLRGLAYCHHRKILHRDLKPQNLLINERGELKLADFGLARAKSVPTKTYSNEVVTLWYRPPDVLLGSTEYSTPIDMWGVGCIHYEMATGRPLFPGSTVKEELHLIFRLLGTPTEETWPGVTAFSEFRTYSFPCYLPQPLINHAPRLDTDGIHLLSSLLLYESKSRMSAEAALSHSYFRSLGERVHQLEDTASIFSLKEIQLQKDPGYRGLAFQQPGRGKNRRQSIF
Sequence of CDK18/Cyclin Y (Q8ND76 whole entry): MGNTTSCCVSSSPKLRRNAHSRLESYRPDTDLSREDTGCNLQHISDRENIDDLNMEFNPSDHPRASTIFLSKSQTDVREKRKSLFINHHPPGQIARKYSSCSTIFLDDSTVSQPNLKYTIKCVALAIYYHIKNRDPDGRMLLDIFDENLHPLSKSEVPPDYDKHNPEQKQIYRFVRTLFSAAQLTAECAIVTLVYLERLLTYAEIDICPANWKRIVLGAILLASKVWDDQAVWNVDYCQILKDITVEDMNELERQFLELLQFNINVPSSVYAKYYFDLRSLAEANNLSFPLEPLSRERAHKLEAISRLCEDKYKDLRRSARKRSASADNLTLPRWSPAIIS

[20] = biological target: T1, Mitogen-activated protein kinase 7 (Homo sapiens, UniProt Q13164); experiment: Inhibition of Erk5 (unknown origin) at 200 nM relative to control; values are per cent of control
[21] = biological target: T1, Mitogen-activated protein kinase 7; experiment: Inhibition of Erk5 (unknown origin)
Cytochrome P450 1A2 = Cytochrome P450 1A2 (Homo sapiens, UniProt P05177); experiment: Inhibition of CYP1A2 (unknown origin); type: ADME
Cytochrome P450 2C9 = Cytochrome P450 2C9 (Homo sapiens, UniProt P11712); experiment: Inhibition of CYP2C9 (unknown origin); type: ADME
Sequence of Cytochrome P450 2C9 (P11712 whole entry): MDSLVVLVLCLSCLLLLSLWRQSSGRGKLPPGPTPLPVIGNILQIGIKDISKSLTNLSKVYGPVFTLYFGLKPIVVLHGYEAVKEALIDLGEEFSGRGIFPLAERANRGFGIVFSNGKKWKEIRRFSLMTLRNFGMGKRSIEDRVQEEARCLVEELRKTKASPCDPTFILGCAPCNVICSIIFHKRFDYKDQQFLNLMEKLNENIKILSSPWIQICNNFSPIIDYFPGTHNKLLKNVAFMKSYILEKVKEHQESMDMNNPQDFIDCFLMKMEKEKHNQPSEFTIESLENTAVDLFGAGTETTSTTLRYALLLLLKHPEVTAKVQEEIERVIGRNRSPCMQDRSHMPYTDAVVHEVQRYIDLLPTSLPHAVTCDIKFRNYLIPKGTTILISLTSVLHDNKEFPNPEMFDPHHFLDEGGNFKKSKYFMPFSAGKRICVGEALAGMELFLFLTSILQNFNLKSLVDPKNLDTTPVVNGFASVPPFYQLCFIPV

[22] = Cmax in mouse at 5 mg/kg, po; type: ADME, organism-based; conditions: in vivo
[23] = biological target: Mitogen-activated protein kinase 15 (Homo sapiens, UniProt Q8TD08); experiment: Inhibition of Erk8 (unknown origin)
[24] = Half life in female Balb/c nude mouse at 5 mg/kg, po; type: ADME, organism-based; conditions: in vivo
[25] = biological target: Voltage-gated inwardly rectifying potassium channel KCNH2 (Homo sapiens, UniProt Q12809); experiment: Inhibition of hERG; type: toxicity
Sequence of Voltage-gated inwardly rectifying potassium channel KCNH2 (Q12809 whole entry): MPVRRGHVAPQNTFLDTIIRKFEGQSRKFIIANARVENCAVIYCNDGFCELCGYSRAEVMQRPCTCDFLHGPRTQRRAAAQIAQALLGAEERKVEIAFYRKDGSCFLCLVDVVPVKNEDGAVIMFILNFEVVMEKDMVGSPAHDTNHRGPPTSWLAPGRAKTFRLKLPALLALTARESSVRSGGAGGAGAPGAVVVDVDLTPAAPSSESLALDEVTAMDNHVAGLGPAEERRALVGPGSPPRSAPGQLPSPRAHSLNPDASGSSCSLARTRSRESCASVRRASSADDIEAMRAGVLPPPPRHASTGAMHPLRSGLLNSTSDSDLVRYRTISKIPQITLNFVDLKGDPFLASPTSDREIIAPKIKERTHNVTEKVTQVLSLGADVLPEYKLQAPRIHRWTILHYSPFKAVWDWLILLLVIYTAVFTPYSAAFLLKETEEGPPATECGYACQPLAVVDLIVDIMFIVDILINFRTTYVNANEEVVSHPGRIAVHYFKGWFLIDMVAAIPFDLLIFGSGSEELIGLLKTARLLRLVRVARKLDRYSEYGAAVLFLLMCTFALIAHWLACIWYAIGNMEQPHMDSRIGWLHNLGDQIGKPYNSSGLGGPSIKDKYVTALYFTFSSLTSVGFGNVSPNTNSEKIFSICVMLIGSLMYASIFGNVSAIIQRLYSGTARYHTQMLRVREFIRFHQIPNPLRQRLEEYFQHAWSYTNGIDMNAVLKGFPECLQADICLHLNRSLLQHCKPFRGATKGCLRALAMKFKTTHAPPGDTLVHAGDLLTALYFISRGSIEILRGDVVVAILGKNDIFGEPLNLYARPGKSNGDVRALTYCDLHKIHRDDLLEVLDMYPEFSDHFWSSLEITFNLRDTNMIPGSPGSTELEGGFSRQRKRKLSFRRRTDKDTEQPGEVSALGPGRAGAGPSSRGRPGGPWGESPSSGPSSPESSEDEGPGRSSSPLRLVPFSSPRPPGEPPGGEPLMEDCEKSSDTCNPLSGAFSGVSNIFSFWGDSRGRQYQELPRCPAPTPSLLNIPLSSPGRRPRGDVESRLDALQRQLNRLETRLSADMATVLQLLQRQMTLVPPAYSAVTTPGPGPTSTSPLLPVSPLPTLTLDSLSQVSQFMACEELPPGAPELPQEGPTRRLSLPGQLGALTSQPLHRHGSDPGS

[26] = AUC (0 to t) in human OVCAR-3 cells xenografted in female Balb/c nude mouse plasma at 2 mg/kg, po administered once daily; type: ADME, organism-based
[27] = AUC(0 to t) in rat at 1 mg/kg, iv; type: ADME, organism-based; conditions: in vivo
[28] = Cmax in human HCC70 cells xenografted in female nu/nu mouse plasma at 10 mg/kg, po administered once daily; type: ADME, organism-based
[29] = biological target: Serine/threonine-protein kinase TAO1 (Homo sapiens) (UniProt Q7L7X3); experiment: Inhibition of TAOK1 (unknown origin) at 200 nM relative to control; values are per cent of control
Sequence of Serine/threonine-protein kinase TAO1 (Homo sapiens) (Q7L7X3 whole entry): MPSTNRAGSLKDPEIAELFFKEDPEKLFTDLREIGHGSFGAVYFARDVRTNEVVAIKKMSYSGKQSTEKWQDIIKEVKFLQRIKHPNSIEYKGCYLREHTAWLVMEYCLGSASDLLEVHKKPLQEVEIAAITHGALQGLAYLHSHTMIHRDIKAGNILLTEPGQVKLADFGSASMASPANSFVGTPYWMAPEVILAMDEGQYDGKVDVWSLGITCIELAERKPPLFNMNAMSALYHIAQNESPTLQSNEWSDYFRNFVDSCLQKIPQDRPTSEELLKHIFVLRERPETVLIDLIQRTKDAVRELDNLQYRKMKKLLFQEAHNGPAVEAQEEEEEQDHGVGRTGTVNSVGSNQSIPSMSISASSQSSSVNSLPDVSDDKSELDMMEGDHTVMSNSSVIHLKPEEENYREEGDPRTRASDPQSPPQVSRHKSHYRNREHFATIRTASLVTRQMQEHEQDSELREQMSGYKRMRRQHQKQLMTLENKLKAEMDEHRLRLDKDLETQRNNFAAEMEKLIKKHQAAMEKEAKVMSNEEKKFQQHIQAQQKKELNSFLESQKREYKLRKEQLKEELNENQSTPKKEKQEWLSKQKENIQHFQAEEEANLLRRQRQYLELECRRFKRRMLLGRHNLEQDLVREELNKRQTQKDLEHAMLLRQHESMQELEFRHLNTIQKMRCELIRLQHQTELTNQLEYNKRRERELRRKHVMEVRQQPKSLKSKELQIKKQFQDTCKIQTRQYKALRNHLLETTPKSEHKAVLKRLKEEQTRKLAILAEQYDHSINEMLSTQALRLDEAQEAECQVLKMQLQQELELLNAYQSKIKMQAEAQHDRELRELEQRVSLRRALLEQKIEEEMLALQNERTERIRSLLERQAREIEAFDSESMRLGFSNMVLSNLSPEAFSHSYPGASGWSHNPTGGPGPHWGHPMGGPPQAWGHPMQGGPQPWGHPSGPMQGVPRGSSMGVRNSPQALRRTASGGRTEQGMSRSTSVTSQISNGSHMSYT

[30] = biological target: Cyclin-Y/Cyclin-dependent kinase 16 (Homo sapiens) (UniProt Q00536+Q8ND76); experiment: Inhibition of CDK16/CyclinY (unknown origin) at 200 nM relative to control; values are per cent of control
HCC70 [31] = experiment: cells; conditions: Homo sapiens, HCC70, 72 h
Description: Antiproliferative activity against human HCC70 cells assessed as inhibition of cell proliferation incubated for 72 hrs by celltiter-glo assay

OVCAR-3 [32] = experiment: Antitumor activity against human OVCAR-3 cells xenografted in female Balb/c nude mouse assessed as tumor growth inhibition at 20 mg/kg, po administered once daily and measured on day 22; type: functional; conditions: OVCAR-3, 528 h, time 22 day, read-out: TGI
[33] = Cmax in human HCC70 cells xenografted in female nu/nu mouse plasma at 1 mg/kg, po administered once daily; type: ADME, organism-based
[34] = Half life in human OVCAR-3 cells xenografted in female Balb/c nude mouse plasma at 20 mg/kg, po administered once daily; type: ADME, organism-based
[35] = biological target: Cyclin-dependent kinase 14/Cyclin-Y (Homo sapiens) (UniProt O94921+Q8ND76); experiment: Inhibition of CDK14/Cyclin Y (unknown origin) at 200 nM relative to control; values are per cent of control
Cytochrome P450 3A4 = Cytochrome P450 3A4 (Homo sapiens, UniProt P08684); experiment: Inhibition of CYP3A4 (unknown origin); type: ADME
Sequence of Cytochrome P450 3A4 (P08684 whole entry): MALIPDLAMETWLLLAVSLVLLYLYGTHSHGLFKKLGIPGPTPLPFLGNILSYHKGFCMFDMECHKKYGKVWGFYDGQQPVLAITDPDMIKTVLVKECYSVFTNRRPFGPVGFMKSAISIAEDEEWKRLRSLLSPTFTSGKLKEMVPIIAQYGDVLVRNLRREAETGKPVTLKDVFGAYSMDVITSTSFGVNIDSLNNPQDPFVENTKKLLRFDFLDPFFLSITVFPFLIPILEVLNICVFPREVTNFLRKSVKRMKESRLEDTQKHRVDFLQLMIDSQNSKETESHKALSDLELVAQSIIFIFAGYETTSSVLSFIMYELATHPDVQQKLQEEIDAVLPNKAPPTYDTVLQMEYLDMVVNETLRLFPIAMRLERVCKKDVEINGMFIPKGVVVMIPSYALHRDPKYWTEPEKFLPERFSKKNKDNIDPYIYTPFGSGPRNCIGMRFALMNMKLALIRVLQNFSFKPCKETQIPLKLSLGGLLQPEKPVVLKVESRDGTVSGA

[36] = Half life in dog at 2 mg/kg, po; type: ADME, organism-based, Canis lupus familiaris; conditions: in vivo
[37] = Drug concentration in rat small intestine at 5 mg/kg, po measured after 8 hrs; type: ADME, organism-based; conditions: read-out: Ct
[38] = Cmax in human OVCAR-3 cells xenografted in female Balb/c nude mouse plasma at 2 mg/kg, po administered once daily; type: ADME, organism-based
[39] = Oral bioavailability in dog at 2 mg/kg; type: ADME, organism-based, Canis lupus familiaris; conditions: in vivo
[40] = Cmax in human HCC70 cells xenografted in female nu/nu mouse plasma at 3 mg/kg, po administered once daily; type: ADME, organism-based
[41] = biological target: CDK4/Cyclin D3 (Homo sapiens) (UniProt P11802+P30281); experiment: Inhibition of CDK4/Cyclin D3 (unknown origin) at 200 nM relative to control; values are per cent of control

## CN1CC(F)(F)CCN(C)[C@H]2CC[C@@H](C2)Nc2ncc(C(F)(F)F)c(n2)-c2c[nH]c3c(P(C)(C)=O)c(ccc23)C1=O
HCC70 [1]
  inhibition in vivo at 3 mg/kg: 120%
[2]
  concentration at 2 h: 3230 ng/g
[3]
  half-life: 2 h
[4]
  half-life: 7.8 h
[5]
  AUC(0-t): 3940 ng·h/mL
[6]
  concentration at 8 h: 3.5 ng/mL
[7]
  residual activity: 20%
OVCAR-3 [8]
  inhibition in vivo at 5 mg/kg: 111%
[9]
  pIC50: 6.84
[10]
  concentration at 0.5 h: 33.9 ng/mL
[11]
  AUC(0-t): 812 ng·h/mL
[12]
  AUC(0-t): 44600 ng·h/mL
[13]
  residual activity: 28%
[14]
  Cmax: 580 ng/mL
[15]
  Cmax: 6620 ng/mL
[16]
  half-life: 2 h
[17]
  half-life: 5.5 h
[18]
  AUC(0-t): 15300 ng·h/mL
Cytochrome P450 2D6
  pIC50: 5.15
[19]
  concentration at 0.5 h: 2240 ng/g
CDK18/Cyclin Y
  pIC50: 8.38
[20]
  residual activity: 5.6%
[21]
  pIC50: 7.58
Cytochrome P450 1A2
  pIC50: < 4.30
Cytochrome P450 2C9
  pIC50: 4.38
[22]
  Cmax: 355 ng/mL
[23]
  pIC50: 8.10
[24]
  half-life: 4.3 h
[25]
  pIC50: 5.00
[26]
  AUC(0-t): 329 ng·h/mL
[27]
  AUC(0-t): 415 ng·h/mL
[28]
  Cmax: 401 ng/mL
[29]
  residual activity: 24%
[30]
  residual activity: 0.8%
HCC70 [31]
  pIC50: 7.61
OVCAR-3 [32]
  inhibition in vivo at 20 mg/kg: 111%
[33]
  Cmax: 75 ng/mL
[34]
  half-life: 3.4 h
[35]
  residual activity: 1.3%
Cytochrome P450 3A4
  pIC50: 5.28
[36]
  half-life: 4.4 h
[37]
  concentration at 8 h: 67 ng/g
[38]
  Cmax: 214 ng/mL
[39]
  bioavailability: 147%
[40]
  Cmax: 130 ng/mL
[41]
  residual activity: 17%
